The values that follow are results of earlier work, collected in patent US20260232763A1 (Kadmon Corporation, LLC, priority 2023, published 2026).

One data set concerns the target human serum albumin (Homo sapiens, UniProt P02768). As to conditions: in vitro; cited from earlier work.
Data set [1] deals with human peripheral blood lymphocytes (HPBL). To be noted: chromosome aberration; cited from earlier work.
The subject of another data set is rats. As to conditions: cited from earlier work.

Sequence of human serum albumin (P02768 25-609): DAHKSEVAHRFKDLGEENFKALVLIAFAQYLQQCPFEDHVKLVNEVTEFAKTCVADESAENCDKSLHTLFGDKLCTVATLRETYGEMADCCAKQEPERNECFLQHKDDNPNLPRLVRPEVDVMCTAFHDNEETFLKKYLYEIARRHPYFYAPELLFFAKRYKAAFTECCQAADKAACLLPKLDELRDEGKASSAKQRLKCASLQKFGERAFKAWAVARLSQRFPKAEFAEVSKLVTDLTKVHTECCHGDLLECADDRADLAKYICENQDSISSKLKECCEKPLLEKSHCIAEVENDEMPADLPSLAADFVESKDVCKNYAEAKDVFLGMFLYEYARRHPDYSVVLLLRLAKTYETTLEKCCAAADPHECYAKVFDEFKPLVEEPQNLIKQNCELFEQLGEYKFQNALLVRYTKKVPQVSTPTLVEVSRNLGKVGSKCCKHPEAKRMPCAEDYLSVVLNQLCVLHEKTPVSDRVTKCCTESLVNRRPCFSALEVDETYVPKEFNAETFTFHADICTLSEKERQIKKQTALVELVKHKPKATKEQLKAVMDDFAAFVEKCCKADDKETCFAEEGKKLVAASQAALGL

For `CC(C)NC(=O)COc1cccc(-c2nc(Nc3ccc4[nH]ncc4c3)c3ccccc3n2)c1` [belumosudil, 2-{3-[4-(1H-indazol-5-ylamino)-2-quinazolinyl]phenoxy}-N-(propan-2-yl) acetamide], the “binding to human serum albumin” value on human serum albumin is reported as 99.9%. For the same compound, in data set [1], the genotoxicity entry is “not genotoxic”. Further, the “dose with decreased follicular development in ovaries” value in the data set with rats is reported as 275 mg/kg/day.
